Test results reported in patent US4221803A, “Substituted dibenzyl ethers and pharmaceutical compositions containing said ethers for the treatment of infections” (Recordati, S.A., priority 1979, dated 1980).
In brackets after ≈: the same amount, converted by molar mass. Read-outs that look alike come from different tables or passages of the source.

Tests used:
[1] = Acute toxicity per os in the mouse; settings: in vivo, po
Description: In Table I are reported the acute toxicity values (LD50) of the compounds I and of both the comparison substances. Toxicity, given in mg/Kg, has been evaluated per os in the mouse by conventional methods.

[2] = system: C.Albicans 1040; assay: Antimycotic activity, two-fold serial broth dilution; format: cell-based; settings: Candida albicans, Sabouraud liquid pH 5.7, 37° C., 48 hours
Procedure: (§1) In Table II are reported the minimal inhibent concentrations (MIC) of the compounds I and of both the comparison substances. For MIC, the minimal concentration is intended, i.e., one which is able to inhibit the growth of several fungi and yeasts. The MIC values have been determined according to the usual two-fold serial broth dilution technique.
(§2) Medium: Sabouraud liquid pH 5.7 (5 ml per tube)
(§3) Inoculum: Yeasts were grown in Sabouraud liquid for 24 hours (Cryptococcus neoformans for 2 days). Cells were collected by centrifugation at 6500 rpm and again suspended in physiological solution so as to have a suspension giving on a Coleman Jr II spectrophotometer, at a wavelength of 650 nm, a 50% transparence (T). 0.1 ml of this suspension constituted the inoculum for 5 ml.
(§4) Temperature and incubation time: 37° C. for 48 hours.

[3] = system: C.Albicans 1041; assay: as above; format: cell-based; settings: Candida albicans, Sabouraud liquid pH 5.7, 37° C., 48 hours
Procedure: as §1, §2, §3, §4

[4] = system: C.Albicans Grunenthal; assay: as above; format: cell-based; settings: Candida albicans, Sabouraud liquid pH 5.7, 37° C., 48 hours
Procedure: as §1, §2, §3, §4

[5] = system: C.Albicans R; assay: as above; format: cell-based; settings: Candida albicans, Sabouraud liquid pH 5.7, 37° C., 48 hours
Procedure: as §1, §2, §3, §4

[6] = system: C.Neoformans; assay: as above; format: cell-based; settings: Cryptococcus neoformans
Procedure: as §1, §2, §3, §4

[7] = system: A.Niger; assay: as above; format: cell-based; settings: Aspergillus niger, 168 h, Sabouraud liquid pH 5.7, 25° C., 7 days, inoculum 1/10 dilution
Procedure: as §1, §2
(§5) For Aspergillus niger, after filtration, a 1/10 dilution in physiological solution was prepared. 0.1 ml of this dilution constituted the inoculum for 5 ml.
(§6) Temperature and incubation time: 25° C. for 7 days.

[8] = system: E.Floccosum; assay: as above; format: cell-based; settings: Epidermophyton floccosum, 168 h, Sabouraud liquid pH 5.7, 25° C., 7 days
Procedure: as §1, §2, §5, §6

[9] = system: M.Canis 28; assay: as above; format: cell-based; settings: Microsporum canis, 168 h, Sabouraud liquid pH 5.7, 25° C., 7 days
Procedure: as §1, §2, §5, §6

[10] = system: P.Chrysogenum; assay: as above; format: cell-based; settings: Penicillium chrysogenum, 168 h, Sabouraud liquid pH 5.7, 25° C., 7 days
Procedure: as §1, §2, §5, §6

[11] = system: T.Mentagroph. 10148; assay: as above; format: cell-based; settings: 168 h
Procedure: as §1, §2, §5, §6

[12] = system: T.Mentagroph. 2538; assay: as above; format: cell-based; settings: 168 h, Sabouraud liquid pH 5.7, 25° C., 7 days
Procedure: as §1, §2, §5, §6

[13] = system: T.Mentagroph. 5865; assay: as above; format: cell-based; settings: 168 h, Sabouraud liquid pH 5.7, 25° C., 7 days
Procedure: as §1, §2, §5, §6

[14] = system: T.Rubrum 2121; assay: as above; format: cell-based
Procedure: as §1, §2, §5, §6

[15] = system: T.Verrucosum; assay: as above; format: cell-based; settings: Trichophyton verrucosum, 168 h
Procedure: as §1, §2, §5, §6

[16] = system: B.subtilis; assay: Antibacterial activity, two-fold serial broth dilution; format: cell-based; settings: Bacillus subtilis
Procedure: (§7) The MIC values of the products under examination and of both comparison substances, referred to a certain number of gram positive bacteria and determined according to the conventional two-fold serial broth dilution technique, are reported in Table III.
(§8) Medium: Tryptic soy broth pH 7.3 (5 ml per tube)
(§9) Inoculum: The day before the test, the microorganisms to be tested were transplanted in their respective media. After 18 hours incubation at 37° C., 0.1 ml of a 1:100 diluted suspension of each strain in broth, were inoculated in 5 ml of medium containing the products under examination at a serial concentration of from 0.009 to 160 mcg/ml.
(§10) Temperature and incubation time: 37° C. for 18 hours.

[17] = system: Cl. novyi; assay: as above; format: cell-based; settings: Clostridium novyi, Tryptic soy broth pH 7.3, 37° C., 18 hours
Procedure: as §7, §8, §9, §10

[18] = system: S.aureus 10B; assay: as above; format: cell-based; settings: Staphylococcus aureus
Procedure: as §7, §8, §9, §10

[19] = system: S.aureus SG 511; assay: as above; format: cell-based; settings: Staphylococcus aureus
Procedure: as §7, §8, §9, §10

[20] = system: Str.hemolyt 203; assay: as above; format: cell-based
Procedure: as §7, §8, §9, §10

[21] = system: Str.hemolyt 821; assay: as above; format: cell-based; settings: Tryptic soy broth pH 7.3, 37° C., 18 hours
Procedure: as §7, §8, §9, §10

[22] = 48 h, pH 5.7, read-out: Antimycotic activity (MIC)
[23] = pH 5.7, read-out: Antimycotic activity (MIC)
[24] = Trichophyton rubrum, 2121, 168 h, pH 5.7, read-out: Antimycotic activity (MIC)
[25] = 18 h, pH 7.3, read-out: Antibacterial activity (MIC)
[26] = 10B, 18 h, pH 7.3, read-out: Antibacterial activity (MIC)
[27] = SG511, 18 h, pH 7.3, read-out: Antibacterial activity (MIC)
[28] = Str.hemolyt 203, Tryptic soy broth pH 7.3, 37° C., 18 hours, read-out: Antibacterial activity (MIC)
[29] = T.Verrucosum, Sabouraud liquid pH 5.7, 25° C., 7 days, read-out: Antimycotic activity (MIC)
[30] = C.Neoformans, Sabouraud liquid pH 5.7, 37° C., 48 hours, read-out: Antimycotic activity (MIC)
[31] = T.Mentagroph. 10148, Sabouraud liquid pH 5.7, 25° C., 7 days, read-out: Antimycotic activity (MIC)
[32] = Trichophyton rubrum, 168 h, T.Rubrum 2121, Sabouraud liquid pH 5.7, 25° C., 7 days, read-out: Antimycotic activity (MIC)
[33] = B.subtilis, Tryptic soy broth pH 7.3, 37° C., 18 hours, read-out: Antibacterial activity (MIC)
[34] = S.aureus 10B, Tryptic soy broth pH 7.3, 37° C., 18 hours, read-out: Antibacterial activity (MIC)
[35] = SG511, S.aureus SG 511, Tryptic soy broth pH 7.3, 37° C., 18 hours, read-out: Antibacterial activity (MIC)

Row | Compound | LD50 [1] | MIC [2] | MIC [3] | MIC [4] | MIC [5] | MIC [6, 22] | MIC [7] | MIC [8] | MIC [9] | MIC [10] | MIC [11, 23] | MIC [12] | MIC [13] | MIC [14, 24] | MIC [16, 25] | MIC [17] | MIC [18, 26] | MIC [20, 28] | MIC [21] | MIC [15, 29] | also measured
1 | Clc1ccccc1C(c1ccccc1)(c1ccccc1)n1ccnc1 [Clotrimazole, [(imidazol-1-yl)-2-(o-chlorophenyl)-2,2-diphenylmethane]] | 880 mg/kg | 40 µg/mL (≈ 116 µM) | 40 µg/mL (≈ 116 µM) | 10 µg/mL (≈ 29 µM) | 10 µg/mL (≈ 29 µM) | 0.625 µg/mL (≈ 1.81 µM) | 10 µg/mL (≈ 29 µM) | 5 µg/mL (≈ 14.5 µM) | 2.5 µg/mL (≈ 7.25 µM) | 40 µg/mL (≈ 116 µM) | 1.25 µg/mL (≈ 3.62 µM) | 0.078 µg/mL (≈ 0.226 µM) | 0.62 µg/mL (≈ 1.8 µM) | 1.25 µg/mL (≈ 3.62 µM) | 2.5 µg/mL (≈ 7.25 µM) | > 160 µg/mL | 1.25 µg/mL (≈ 3.62 µM) | 5 µg/mL (≈ 14.5 µM) | 2.5 µg/mL (≈ 7.25 µM) |  | MIC [15, 23]: 1.25 µg/mL (≈ 3.62 µM); MIC [19, 27]: 0.312 µg/mL (≈ 0.905 µM)
2 | Clc1ccc(COC(Cn2ccnc2)c2ccc(Cl)cc2Cl)c(Cl)c1 (stereo not drawn) [Miconazole, 2,2',4,4'-tetrachloro-α-(N-imidazolyl-methyl)-dibenzyl ether] | 870 mg/kg | 20 µg/mL (≈ 48.1 µM) | 20 µg/mL (≈ 48.1 µM) | 5 µg/mL (≈ 12 µM) | 5 µg/mL (≈ 12 µM) | 0.078 µg/mL (≈ 0.187 µM) | 40 µg/mL (≈ 96.1 µM) | 5 µg/mL (≈ 12 µM) | 5 µg/mL (≈ 12 µM) | 20 µg/mL (≈ 48.1 µM) | 0.625 µg/mL (≈ 1.5 µM) | 0.078 µg/mL (≈ 0.187 µM) | 0.31 µg/mL (≈ 0.745 µM) | 0.312 µg/mL (≈ 0.75 µM) | 0.625 µg/mL (≈ 1.5 µM) | < 1.25 µg/mL | 0.312 µg/mL (≈ 0.75 µM) |  | 1.25 µg/mL (≈ 3 µM) | 2.5 µg/mL (≈ 6.01 µM) | MIC [19, 27]: 0.312 µg/mL (≈ 0.75 µM); MIC [20, 25]: 0.625 µg/mL (≈ 1.5 µM)
3 | Clc1ccc(C(Cn2ccnc2)OCc2ccc(Sc3ccccc3)cc2)c(Cl)c1 (stereo not drawn) [R=C6 H5 S, 2,4-Dichloro-4'-phenylthio-α-(N-imidazolyl-methyl)-dibenzyl ether] | 3000 mg/kg | 80 µg/mL (≈ 176 µM) | 80 µg/mL (≈ 176 µM) | 40 µg/mL (≈ 87.8 µM) | 40 µg/mL (≈ 87.8 µM) |  | 10 µg/mL (≈ 22 µM) | 5 µg/mL (≈ 11 µM) | 2.5 µg/mL (≈ 5.49 µM) | 5 µg/mL (≈ 11 µM) |  | 0.156 µg/mL (≈ 0.343 µM) | 1.25 µg/mL (≈ 2.74 µM) |  |  | 5 µg/mL (≈ 11 µM) |  | 0.078 µg/mL (≈ 0.171 µM) | 0.156 µg/mL (≈ 0.343 µM) | 1.25 µg/mL (≈ 2.74 µM) | MIC [6, 30]: 0.156 µg/mL (≈ 0.343 µM); MIC [11, 31]: 0.625 µg/mL (≈ 1.37 µM); MIC [14, 32]: 0.625 µg/mL (≈ 1.37 µM); MIC [16, 33]: 0.078 µg/mL (≈ 0.171 µM); MIC [18, 34]: 0.018 µg/mL (≈ 0.0395 µM); MIC [19, 35]: 0.039 µg/mL (≈ 0.0856 µM)
4 | Clc1ccc(C(Cn2ccnc2)OCc2ccc(-c3ccccc3)cc2)c(Cl)c1 (stereo not drawn) [R=C6 H5, 2,4-Dichloro-4'-phenyl-α-(N-imidazolyl-methyl)-dibenzyl ether] | 2400 mg/kg | 10 µg/mL (≈ 23.6 µM) | 20 µg/mL (≈ 47.2 µM) | 5 µg/mL (≈ 11.8 µM) | 5 µg/mL (≈ 11.8 µM) |  | 20 µg/mL (≈ 47.2 µM) | 10 µg/mL (≈ 23.6 µM) | 20 µg/mL (≈ 47.2 µM) | 20 µg/mL (≈ 47.2 µM) |  | 0.156 µg/mL (≈ 0.368 µM) | 1.25 µg/mL (≈ 2.95 µM) |  |  | < 1.25 µg/mL |  | 0.312 µg/mL (≈ 0.737 µM) | 0.156 µg/mL (≈ 0.368 µM) | 10 µg/mL (≈ 23.6 µM) | MIC [6, 30]: 0.312 µg/mL (≈ 0.737 µM); MIC [11, 31]: 0.625 µg/mL (≈ 1.48 µM); MIC [14, 32]: 0.625 µg/mL (≈ 1.48 µM); MIC [16, 33]: 0.156 µg/mL (≈ 0.368 µM); MIC [18, 34]: 0.039 µg/mL (≈ 0.0921 µM); MIC [19, 35]: 0.039 µg/mL (≈ 0.0921 µM)
